Patent US9387231B2, “Compositions comprising a Brd4 antagonist and methods for the treatment of HIV” (THE CHILDREN'S HOSPITAL OF PHILADELPHIA, priority 2011, dated 2016)
Entries after “also recorded” stand apart in the source; their conditions may differ.

Columns and labels:
Type in all cases: cell-based
[1] = test system: HIV-1 NL43, SG3 or SG3deltaVif; test: Reactivation in latently infected primary resting CD4 T-cells (p24 ELISA)
Description: A representative of three experiments is shown. […] AZT (100 μM) was added at day 1 after infection to prevent the spreading infection. The level of p24 in the media was measured by ELISA at day 3 (d3) and day 5 (d5) post-infection. The data shown are summarized for triplicate samples.
For FIG. 5A, primary resting CD4 T-cells were purified and spinoculated with HIV-1 NL43 or mock control. The infected cells were then cultured in the presence of 1 μM of JQ1(+) or JQ1(−). At day 3 after infection, IL-7 (20 ng/ml) was added in some of the cultures. Cells were counted and cell supernatants were collected at day 5 after infection. For FIG. 5B, primary CD4 T-cells were spinoculated with SG3 or SG3deltaVif and cultured in the presence of 1 μM of JQ1(+) or JQ1(−). AZT (100 μM) was added at day 1 after infection to prevent the spreading infection. IL7 (20 ng/ml) was added in some culture at day 3 after infection and the level of p24 in the media was measured by ELISA at day 3 and day 5 post-infection. The data shown are summarized with triplicates.

[2] = test system: HIV (NL43, SG3, BAL1 or BL2); test: HIV infection of primary activated CD4 T-cells (p24 by flow cytometry or ELISA)
Excerpt: Primary CD4 T-cells were activated with anti-CD3/28, infected with NL43, SG3, BAL1, or BL2 (FIG. 1A) or NL43 (FIGS. 1B and 1C), and cultured in the presence of the BET antagonist JQ1(+) or the control enantiomer JQ1(−). FIG. 1A provides the expression of p24Gag in cells as determined by flow cytometry. FIGS. 1B and 1C show viral production as measured in culture supernatants by ELISA.
Primary CD4 T-cells were activated with anti-CD3/28, then infected with HIV, NL43 or SG3, and cultured in the presence of JQ1(+) (1 μM or 0.1 μM) or media. At days 3, 6, 10 and 13 after infection, cell death was measured by percent of FSC/SSC (forward scatter/side scatter) as indicated in individual plots (FIGS. 8A and 8C). The expression of p24 in live cells was examined by flow cytometry and is shown as the percentage of p24+ cells (FIGS. 8B and 8D).
BET antagonists inhibit viral infection in primary activated CD4 T-cells. Specifically, the effect of the BET antagonist JQ1(+) on viral replication was tested in HIV-infected T-cells. Primary activated CD4 T-cells were infected with X4-tropic virus (NL43 or SG3) or R5-tropic virus (BAL1 or BL2) in the presence or absence of JQ1(+) (1 μM). Viral infection was measured by flow cytometry or ELISA at various days after infection.
Of note, mean fluorescence of p24 was unchanged in the presence of the active inhibitor, indicating there was not a non-specific toxic drug effect and supporting the observation that BET antagonism inhibits HIV production at late time points of infection in primary activated CD4 T-cells.

HIV (NL43, SG3) = test: Viral production and p24Gag expression in HIV-infected CEMss LTR-GFP cells
HIV-1 NL43 = test: Viral integration in primary resting CD4 T-cells by Alu-PCR; settings: for provirus/cell: NL43, 1 μM, T48 h, listed as JQ(+)
Description: To determine if JQ1(+) affects viral integration in primary resting CD4 T-cells, the cells were purified and infected with HIV-1 NL43 or mock control. The infected cells were then cultured in the presence of 1 μM of JQ1(+) or JQ1(−) for 48 hours. Cell pellets were collected at 0 hours and 48 hours after infection. DNA was isolated and the viral integration in resting CD4 T-cells was measured by Alu-PCR.

Cc1sc2c(c1C)C(c1ccc(Cl)cc1)=N[C@@H](CC(=O)OC(C)(C)C)c1nnc(C)n1-2 [JQ1(+), tert-butyl 2-((6S)-4-(4-chlorophenyl)-2,3,9-trimethyl-6H-thieno[3,2-f][1,2,4]triazolo[4,3-a][1,4]diazepin-6-yl)acetate]
Reactivation of the HIV LTR (p24 per million cells) ([1]; latently infected primary resting CD4 T-cells, NL43, 1 μM): drives the reactivation of the HIV LTR
Reactivation of the HIV LTR (p24 in media) ([1]; wild-type SG3 latently infected primary CD4 T-cells, 1 μM, AZT 100 μM): drives reactivation of the HIV LTR; also recorded: drives the reactivation of the HIV LTR
Viral infection at low concentration ([2]; primary CD4 T-cells, NL43, 0.1 μM): inhibition of viral infection was also observed
HIV infection (viral production, ELISA) ([2]; primary CD4 T-cells, NL43, days 3 and 6 after infection, p<0.05): significantly inhibited
Relative number of virus-expressing cells (percentage of p24+ cells) ([2]; primary activated CD4 T-cells, NL43 or SG3, 0.1 μM): still suppressed
Levels of infection ([2]; primary activated CD4 T-cells, X4-tropic (NL43, SG3) or R5-tropic (BAL1, BL2) virus, 1 μM, flow cytometry or ELISA, various days): decrease
Mean fluorescence of p24 ([2]; primary activated CD4 T-cells, in the presence of the active inhibitor): unchanged
Relative number of Gag-expressing live GFP+ cells (HIV (NL43, SG3); CEMss LTR-GFP cells infected with SG3, day 5 post-infection, flow cytometry): significantly decreased
Production of p24 in supernatants (HIV (NL43, SG3); CEMss LTR-GFP cells, HIV NL4-3, 0.25 μM, day 6 after infection, ELISA): decreased below control values
Expression of p24Gag in the infected cells (ratio of p24+ in GFP+ population) (HIV (NL43, SG3); CEMss LTR-GFP cells, NL43, 1 μM, day 3 after infection): decreased
Viral production (p24Gag in supernatants, ELISA) (HIV (NL43, SG3); CEMss LTR-GFP cells, NL43, 1 μM, day 6 after infection): decreased
provirus/cell (HIV-1 NL43; Exp. 1, primary resting CD4 T-cells): 0.559 ± 0.005 provirus/cell
provirus/cell (HIV-1 NL43; Exp. 2, primary resting CD4 T-cells): 0.444 ± 0.120 provirus/cell
Viral integration (HIV-1 NL43; primary resting CD4 T-cells, 1 μM, 48 hours, Alu-PCR): does not significantly affect
